Measured values as given in US8501446B2 (Vertex Pharmaceuticals Incorporated, priority 2004, dated 2013).

Legend:
Type in all cases: biochemical
[1] = target: T1, JAK3 (Homo sapiens, UniProt P52333); assay: JAK3 inhibition assay (standard radioactive enzyme assay); settings: average Ki if more than one value determined
T1 sequence (P52333 1-1124): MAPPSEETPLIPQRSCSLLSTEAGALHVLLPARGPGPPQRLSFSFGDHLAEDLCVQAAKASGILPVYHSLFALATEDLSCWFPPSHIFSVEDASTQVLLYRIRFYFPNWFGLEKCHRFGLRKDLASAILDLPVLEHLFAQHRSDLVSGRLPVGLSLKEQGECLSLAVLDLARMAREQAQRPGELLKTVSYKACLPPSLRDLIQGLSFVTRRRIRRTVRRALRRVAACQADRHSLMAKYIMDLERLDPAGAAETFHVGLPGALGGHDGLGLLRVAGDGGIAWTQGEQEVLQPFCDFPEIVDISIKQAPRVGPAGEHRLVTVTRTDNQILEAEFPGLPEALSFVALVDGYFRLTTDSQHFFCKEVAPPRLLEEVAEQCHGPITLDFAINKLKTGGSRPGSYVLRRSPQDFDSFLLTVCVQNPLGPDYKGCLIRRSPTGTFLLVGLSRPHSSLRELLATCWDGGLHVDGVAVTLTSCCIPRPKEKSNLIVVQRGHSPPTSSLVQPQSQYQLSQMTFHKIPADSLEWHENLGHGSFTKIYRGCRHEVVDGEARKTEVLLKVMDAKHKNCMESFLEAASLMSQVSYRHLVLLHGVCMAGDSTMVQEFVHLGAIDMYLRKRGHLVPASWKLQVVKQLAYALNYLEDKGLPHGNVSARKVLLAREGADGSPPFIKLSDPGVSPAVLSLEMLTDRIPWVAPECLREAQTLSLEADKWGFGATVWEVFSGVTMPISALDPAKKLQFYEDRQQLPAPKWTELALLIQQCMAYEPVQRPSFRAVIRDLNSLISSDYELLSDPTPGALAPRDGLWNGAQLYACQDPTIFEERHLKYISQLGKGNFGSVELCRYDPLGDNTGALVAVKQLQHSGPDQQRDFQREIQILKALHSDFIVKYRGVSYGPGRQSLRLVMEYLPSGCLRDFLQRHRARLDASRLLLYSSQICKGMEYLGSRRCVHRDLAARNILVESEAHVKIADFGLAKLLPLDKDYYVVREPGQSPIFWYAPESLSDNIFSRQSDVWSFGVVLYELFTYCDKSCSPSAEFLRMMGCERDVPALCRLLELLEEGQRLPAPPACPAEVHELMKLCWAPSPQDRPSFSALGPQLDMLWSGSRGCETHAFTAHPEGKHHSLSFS
Experimental: (§1) Compounds were screened for their ability to inhibit JAK3 using a standard radioactive enzyme assay. 1.5 μL/well of a DMSO stock containing serial dilutions of a compound of the present invention (concentrations ranging from 667 μM to 46 nM) was placed in a 96 well polycarbonate plate. 50 μL per well of kinase buffer (100 mM HEPES (pH 7.4), 10 mM MgCl2, 25 mM NaCl, 1 mM DTT, and 0.01% bovine serum albumin (BSA)) containing 2 μM poly(Glu)4Tyr and 10 μM ATP was also added to the plate. To initiate the reaction, 50 μL kinase buffer containing 2 nM JAK3 enzyme was added. Final ATP concentration was 5 μM [γ-^33P] ATP (200 μCi ^33P ATP/μmol ATP (Perkin Elmer, Cambridge, Mass.). After 20 minutes at room temperature (25° C.), the reaction was stopped by adding 50 μL 20% trichloroacetic acid (TCA)/0.4 mM ATP to each well. The entire content of each well was then transferred to a 96 well glass fiber filter plate using a TomTek Cell Harvester. After washing, 60 μL scintillation fluid was added and ^33P incorporation detected using a Perkin Elmer TopCount. After removing mean background values for all of the data points the data was fit using Prism software to obtain a Ki(app). Inhibition of JAK2 was measured as above except that final poly(Glu)4Tyr concentration was 15 μM and final ATP concentration was 12 μM.

[2] = target: JAK2 (Homo sapiens, UniProt O60674); assay: JAK2 inhibition assay (radioactive enzyme assay, as for JAK3); settings: average Ki if more than one value determined
Experimental: as §1

[3] = target: T2, ROCK I (AA 6-553) (Homo sapiens, UniProt Q13464); assay: ROCK inhibition assay, standard coupled enzyme system ("Enzyme"); settings: enzyme-linked assay
T2 construct: ROCK I (AA 6-553)
Outline: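 ROCK I (AA 6-553) at 45 nM and 30 °C with 45 μM ATP and 200 μM peptide, in 100 mM HEPES pH 7.5, 10 mM MgCl2, 25 mM NaCl, 2 mM DTT, 1.5% DMSO. ADP output read by a PK/LDH coupled system: 2.5 mM PEP, 350 μM NADH, 30 μg/ml PK, 10 μg/ml LDH.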

T2 sequence (Q13464 6-553, species assumed): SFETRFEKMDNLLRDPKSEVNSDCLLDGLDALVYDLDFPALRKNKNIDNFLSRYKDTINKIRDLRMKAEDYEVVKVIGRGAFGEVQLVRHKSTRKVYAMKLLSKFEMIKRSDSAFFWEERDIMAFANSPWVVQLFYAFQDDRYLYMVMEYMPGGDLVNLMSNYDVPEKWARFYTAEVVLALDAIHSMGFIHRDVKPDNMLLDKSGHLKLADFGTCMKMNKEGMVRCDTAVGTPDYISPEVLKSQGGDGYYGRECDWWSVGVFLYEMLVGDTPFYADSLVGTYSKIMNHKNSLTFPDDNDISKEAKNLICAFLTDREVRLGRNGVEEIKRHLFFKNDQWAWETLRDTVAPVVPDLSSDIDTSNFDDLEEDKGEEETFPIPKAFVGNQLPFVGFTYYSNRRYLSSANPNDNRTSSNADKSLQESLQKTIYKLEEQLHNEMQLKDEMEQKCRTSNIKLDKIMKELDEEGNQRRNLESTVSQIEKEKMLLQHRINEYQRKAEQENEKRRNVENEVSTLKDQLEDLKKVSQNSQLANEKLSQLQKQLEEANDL
Chain of JAK2 (O60674 whole entry, species assumed): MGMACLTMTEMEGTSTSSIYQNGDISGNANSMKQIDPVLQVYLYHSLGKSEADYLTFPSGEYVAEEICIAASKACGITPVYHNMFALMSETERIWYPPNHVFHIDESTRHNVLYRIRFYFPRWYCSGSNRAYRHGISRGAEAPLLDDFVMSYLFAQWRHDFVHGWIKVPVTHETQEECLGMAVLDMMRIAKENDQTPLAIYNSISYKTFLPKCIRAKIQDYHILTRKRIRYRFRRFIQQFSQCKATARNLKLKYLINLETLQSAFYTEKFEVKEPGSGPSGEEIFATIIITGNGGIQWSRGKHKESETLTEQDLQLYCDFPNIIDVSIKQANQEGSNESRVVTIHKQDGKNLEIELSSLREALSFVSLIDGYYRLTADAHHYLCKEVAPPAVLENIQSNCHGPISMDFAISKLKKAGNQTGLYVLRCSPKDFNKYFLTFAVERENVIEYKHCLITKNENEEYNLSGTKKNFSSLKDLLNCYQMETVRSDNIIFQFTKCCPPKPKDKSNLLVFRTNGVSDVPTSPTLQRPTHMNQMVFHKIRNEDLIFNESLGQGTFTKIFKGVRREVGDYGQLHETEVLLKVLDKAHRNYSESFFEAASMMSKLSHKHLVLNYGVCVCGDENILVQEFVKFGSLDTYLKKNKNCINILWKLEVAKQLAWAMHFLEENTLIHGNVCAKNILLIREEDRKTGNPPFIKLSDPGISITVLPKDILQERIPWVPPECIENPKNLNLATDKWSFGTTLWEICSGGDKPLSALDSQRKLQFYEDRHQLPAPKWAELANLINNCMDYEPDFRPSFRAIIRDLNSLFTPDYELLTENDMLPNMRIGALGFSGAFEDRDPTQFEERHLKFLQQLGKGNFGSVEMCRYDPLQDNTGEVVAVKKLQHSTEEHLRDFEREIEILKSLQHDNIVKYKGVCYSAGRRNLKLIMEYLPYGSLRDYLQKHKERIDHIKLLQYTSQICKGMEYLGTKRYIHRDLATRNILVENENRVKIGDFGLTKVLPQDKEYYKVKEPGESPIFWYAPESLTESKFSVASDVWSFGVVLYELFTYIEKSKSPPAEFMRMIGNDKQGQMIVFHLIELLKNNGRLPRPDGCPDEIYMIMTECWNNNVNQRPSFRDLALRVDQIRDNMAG

Ki [1] [nM] | Ki [2] [nM] | Ki [3] [nM] | Compound
< 500 | < 500 | 500 to 5000 | CC(=O)N1[C@H](C)CN(c2cccc(-c3c[nH]c4ncc(O)cc34)n2)C[C@@H]1C [Compound 77]
< 500 | < 500 | 500 to 5000 | COC(=O)N1CCCN(c2cccc(-c3c[nH]c4ncc(Cl)cc34)n2)CC1 [Compound 83]
< 500 | < 500 | 500 to 5000 | CCOC(=O)N1CCCN(c2cccc(-c3c[nH]c4ncc(Cl)cc34)n2)CC1 [Compound 84]
< 500 | < 500 | 500 to 5000 | CCC(=O)N1CCN(c2cccc(-c3c[nH]c4ncc(Cl)cc34)n2)CC1 [Compound 85]
< 500 | < 500 | 500 to 5000 | CCCC(=O)N1CCN(c2cccc(-c3c[nH]c4ncc(Cl)cc34)n2)CC1 [Compound 86]
< 500 | < 500 | 500 to 5000 | COC(=O)Nc1cccc(-c2c[nH]c3ncc(Cl)cc23)n1 [Compound 87]
< 500 | < 500 | 500 to 5000 | CCCOC(=O)Nc1cccc(-c2c[nH]c3ncc(Cl)cc23)n1 [Compound 88]
< 500 | < 500 | 500 to 5000 | CC(C)CC(=O)N1CCN(c2cccc(-c3c[nH]c4ncc(Cl)cc34)n2)CC1 [Compound 89]
< 500 | < 500 | 500 to 5000 | CC(C)COC(=O)Nc1cccc(-c2c[nH]c3ncc(Cl)cc23)n1 [Compound 90]
500 to 5000 | 500 to 5000 | 500 to 5000 | O=C(Nc1cccc(-c2c[nH]c3ncc(Cl)cc23)n1)OCc1ccccc1 [Compound 91]
500 to 5000 | 500 to 5000 | 500 to 5000 | CC(=O)N1[C@H](C)CN(c2cccc(-c3c[nH]c4ncc(OCCN(C)C)cc34)n2)C[C@@H]1C [Compound 94]
< 500 | < 500 | 500 to 5000 | O=C(O)c1ccc(-c2c[nH]c3ncc(Cl)cc23)cc1 [Compound 104]
< 500 | < 500 | 500 to 5000 | NC(=O)c1ccc(-c2c[nH]c3ncc(Cl)cc23)cc1 [Compound 105]
< 500 | < 500 | 500 to 5000 | O=C(O)c1ccc(-c2c[nH]c3ncc(Cl)cc23)nc1 [Compound 106]
< 500 | < 500 | 500 to 5000 | NC(=O)c1ccc(-c2c[nH]c3ncc(Cl)cc23)nc1 [Compound 107]
< 500 | < 500 | 500 to 5000 | CC(=O)N1[C@H](C)CN(c2cccc(-c3c[nH]c4ncc(C(=O)NCCN5CCOCC5)cc34)n2)C[C@@H]1C [Compound 108]
< 500 | < 500 | 500 to 5000 | CC(=O)N1[C@H](C)CN(c2cccc(-c3c[nH]c4ncc(C(=O)NCCCN5CCN(C)CC5)cc34)n2)C[C@@H]1C [Compound 109]
< 500 | < 500 | 500 to 5000 | CC(=O)N1[C@H](C)CN(c2cc(-c3nnn[nH]3)cc(-c3c[nH]c4ncc(Cl)cc34)n2)C[C@@H]1C [Compound 111]
< 500 | < 500 | 500 to 5000 | COc1cnc2[nH]cc(-c3cccc(N4CCCN(C(C)=O)CC4)n3)c2c1 [Compound 112]
< 500 | < 500 | 500 to 5000 | CC(=O)N1[C@H](C)CN(c2cccc(-c3c[nH]c4ncc(NC(=O)CN5CCNCC5)cc34)n2)C[C@@H]1C [Compound 115]

Ki [1] [nM] | Ki [2] [nM] | Ki [3] [nM] | Compound
< 500 | < 500 | 500 to 5000 | CC(=O)N1[C@H](C)CN(c2cccc(-c3c[nH]c4ncc(NC(=O)CN5CCOCC5)cc34)n2)C[C@@H]1C [Compound 116]
500 to 5000 | > 5000 | 500 to 5000 | CC(=O)N1CCCN(c2cccc(-c3c[nH]c4ncc(C(=O)O)cc34)n2)CC1 [Compound 126]
< 500 | < 500 | 500 to 5000 | CC(=O)N1[C@H](C)CN(c2cccc(-c3c[nH]c4ncc(NC(=O)N5CCOCC5)cc34)n2)C[C@@H]1C [Compound 127]
< 500 | 500 to 5000 | 500 to 5000 | C[C@@H](Nc1cccc(-c2c[nH]c3ncc(Cl)cc23)n1)C1CCCCC1 [Compound 129]
< 500 | < 500 | 500 to 5000 | Clc1cnc2[nH]cc(-c3cccc(NC4CCc5ccccc54)n3)c2c1 (stereo not drawn) [Compound 133]
< 500 | < 500 | 500 to 5000 | CC(C)[C@@H](CO)Nc1cccc(-c2c[nH]c3ncc(Cl)cc23)n1 [Compound 134]
< 500 | < 500 | < 500 | CC(C)[C@H](CO)Nc1cccc(-c2c[nH]c3ncc(Cl)cc23)n1 [Compound 135]
< 500 | < 500 | < 500 | O[C@H]1Cc2ccccc2[C@H]1Nc1cccc(-c2c[nH]c3ncc(Cl)cc23)n1 [Compound 136]
< 500 | < 500 | 500 to 5000 | O[C@@H]1Cc2ccccc2[C@@H]1Nc1cccc(-c2c[nH]c3ncc(Cl)cc23)n1 [Compound 137]
< 500 | < 500 | 500 to 5000 | C=CC(=O)Nc1cnc2[nH]cc(-c3cccc(N4CCCN(C(=O)CC#N)CC4)n3)c2c1 [Compound 138]
< 500 | < 500 | 500 to 5000 | C=CC(=O)Nc1cnc2[nH]cc(-c3cccc(N4CCCN(C(C)=O)CC4)n3)c2c1 [Compound 139]
< 500 | < 500 | 500 to 5000 | CC(=O)Nc1cnc2[nH]cc(-c3cccc(N4CCCN(C(C)=O)CC4)n3)c2c1 [Compound 140]
< 500 | < 500 | 500 to 5000 | CCC(=O)Nc1cnc2[nH]cc(-c3cccc(N4CCCN(C(C)=O)CC4)n3)c2c1 [Compound 141]
< 500 | 500 to 5000 | 500 to 5000 | CC(C)Oc1cccc(-c2c[nH]c3ncc(Cl)cc23)c1 [Compound 143]
< 500 | < 500 | 500 to 5000 | CN(C)c1cccc(-c2c[nH]c3ncc(Cl)cc23)c1 [Compound 144]
< 500 | < 500 | 500 to 5000 | Clc1cnc2[nH]cc(-c3cccc(NCc4ccccc4)c3)c2c1 [Compound 145]
< 500 | < 500 | 500 to 5000 | CC(=O)N1[C@H](C)CN(c2cccc(-c3c[nH]c4ncc(Cl)cc34)c2)C[C@@H]1C [Compound 146]
< 500 | < 500 | 500 to 5000 | O=C(O)c1cc(NCc2ccccc2)cc(-c2c[nH]c3ncc(Cl)cc23)c1 [Compound 147]
< 500 | 500 to 5000 | < 500 | Nc1cc(C(=O)O)cc(-c2c[nH]c3ncc(Cl)cc23)c1 [Compound 148]
< 500 | < 500 | 500 to 5000 | CC(=O)N1CCCN(c2cc(C#N)cc(-c3c[nH]c4ncc(Cl)cc34)n2)CC1 [Compound 149]

Compound | Ki [1] [nM] | Ki [2] [nM] | Ki [3] [nM]
CN1C2CCC1CN(c1cccc(-c3c[nH]c4ncc(Cl)cc34)n1)CC2 (stereo not drawn) [Compound 82] | < 500 | < 500 | < 500
